{"source": "patent US20050197365A1", "about": "“Diamino thiazoloindan derivatives and their use” (priority 2004, published 2005)", "key": {"[1]": {"tested_on": "MPP+ treated PC-12 cells", "assay": "Effect on MPP+ treated PC-12 cells (neuroprotection, LDH release)", "assay_type": "cell-based", "conditions": "1000 μM MPP+ for 48 hours, LDH in medium", "procedure": "Pheochromocytoma PC-12 cells (at a density of 200,000 cells/well) were cultured for 10 days with 50 ng/ml NGF on 6-well culture dishes coated with […] rat tail type I collagen (BD Biosciences, Bedford, Mass., USA). At the day of the experiment the morphological differentiation of the cells was very advanced (typical network formation). In order to initiate the neurotoxic insult, cells were treated with 1000 μM of 1-methyl-4-phenylpyrdinium (MPP+) iodide salt from RBI chemicals (Natick, Mass., USA) for 48 hours in the absence or presence of tested compounds, added to the culture 30 min. prior to MPP+ administration. […] At the cellular level, neuronal cell death is induced by several mechanisms including pathological concentrations of intracellular calcium and free oxygen radicals. Therefore the positive controls in this experiment were nimodipine at the concentration of 10 μM (RBI chemicals, Natick, Mass., USA) (a potent L-type calcium channel blocker) and 4-hydroxy-2,2,6,6-tetramethylpiperidyne-1-oxyl (tempol, a potent antioxidant) at a concentration of 500 μM, (Sigma, St Louis, Mo., USA). At the end of the experiment cell death was measured by assessing Lactate dehydrogenase (LDH) activity in the medium. High medium LDH indicated increased neuronal death that promoted leakage of this cytoplasmic enzyme into the medium.\nMeasuring lactate dehydrogenase activity in the medium was performed using a Sigma Diagnostics LD-L reagent. LDH activity was spectrophotometrically monitored at 340 nm by following the rate of conversion of oxidized nicotinamide adenine dinucleotide (NAD^+) to the reduced form of (NADH). Total LDH of each culture (extracellular+intracellular) was obtained by measuring LDH in the medium after freezing and thawing of the cultures. Basal LDH release was measured in untreated cultures (no MPP+). The neurotoxic effect was calculated according to the formula: (LDHs−LDHb)/LDHt×100. (s=sample; b=basal; t=total). Each compound was tested in sixplicate.\nTo calculate the percentage of neuroprotection for each set of sixplicate experiments, the average neurotoxicity was calculated and the following calculation was undertaken: 100−([neurotoxicity test compound/neurotoxicity MPP^+]×100)."}, "[2]": {"tested_on": "EAE", "assay": "Experimental Allergic Encephalomyelitis (EAE) model of MS", "assay_type": "in vivo, mice", "conditions": "for incidence Value: mice, 10/group; for GMS % inhibition (first GMS column) / GMS % inhibition (second GMS column) / incidence % inhibition: vs methyl cellulose control; for GMS Value (first GMS column) / GMS Value (second GMS column): EAE score scale 0-5"}, "[3]": {"conditions": "Dose 1 μM, NGF-differentiated PC-12 cells"}, "[4]": {"conditions": "Dose 10 μM, NGF-differentiated PC-12 cells"}, "[5]": {"conditions": "2 × 10 mg/kg oral (twice a day)"}}}
{"smiles": "C#CCNC1CCc2cc3sc(N)nc3cc21.Cl.Cl", "note": "(stereo not drawn) [Compound A-1, N5-prop-2-ynyl-6,7-dihydro-5H-1-thia-3-aza-s-indacene-2,5-diamine diHCl]", "values": [{"measurement": "% neuroprotection", "setting": "[1]; [3]", "result": 50, "unit": "%"}, {"measurement": "% neuroprotection", "setting": "[1]; [4]", "result": 60, "unit": "%"}, {"measurement": "Mean duration", "setting": "[2]; 2 × 5 mg/kg oral", "result": "3.0 ± 6.3", "unit": "days"}, {"measurement": "incidence Value", "setting": "[2]; 2 × 5 mg/kg oral (twice a day)", "result": "2/10"}, {"measurement": "GMS % inhibition (first GMS column)", "setting": "[2]; 2 × 5 mg/kg oral", "result": 40.0, "unit": "%"}, {"measurement": "GMS % inhibition (second GMS column)", "setting": "[2]; 2 × 5 mg/kg oral", "result": 33.3, "unit": "%"}, {"measurement": "incidence % inhibition", "setting": "[2]; 2 × 5 mg/kg oral", "result": 50.0, "unit": "%"}, {"measurement": "GMS Value (first GMS column)", "setting": "[2]; 2 × 5 mg/kg oral", "result": "0.6 ± 1.3"}, {"measurement": "GMS Value (second GMS column)", "setting": "[2]; 2 × 5 mg/kg oral", "result": "0.4 ± 0.8"}, {"measurement": "Mean duration", "setting": "[2]; 2 × 10 mg/kg oral", "result": "1.8 ± 5.7", "unit": "days"}, {"measurement": "incidence Value", "setting": "[2]; [5]", "result": "1/10"}, {"measurement": "GMS % inhibition (first GMS column)", "setting": "[2]; 2 × 10 mg/kg oral", "result": 70.0, "unit": "%"}, {"measurement": "GMS % inhibition (second GMS column)", "setting": "[2]; 2 × 10 mg/kg oral", "result": 66.7, "unit": "%"}, {"measurement": "incidence % inhibition", "setting": "[2]; 2 × 10 mg/kg oral", "result": 75.0, "unit": "%"}, {"measurement": "GMS Value (first GMS column)", "setting": "[2]; 2 × 10 mg/kg oral", "result": "0.3 ± 0.9"}, {"measurement": "GMS Value (second GMS column)", "setting": "[2]; 2 × 10 mg/kg oral", "result": "0.2 ± 0.6"}]}
{"smiles": "C#CCNC1CCc2ccc3nc(N)sc3c21.Cl.Cl", "note": "(stereo not drawn) [Compound B-1, N8-prop-2-ynyl-7,8-dihydro-6H-1-thia-3-aza-as-indacene-2,8-diamine diHCl]", "values": [{"measurement": "% neuroprotection", "setting": "[1]; [3]", "result": "60-87%"}, {"measurement": "% neuroprotection", "setting": "[1]; [4]", "result": "58-81%"}, {"measurement": "Mean duration", "setting": "[2]; 2 × 5 mg/kg oral", "result": "0.1 ± 0.3", "unit": "days"}, {"measurement": "incidence Value", "setting": "[2]; 2 × 5 mg/kg oral (twice a day)", "result": "1/10"}, {"measurement": "GMS % inhibition (first GMS column)", "setting": "[2]; 2 × 5 mg/kg oral", "result": 90.0, "unit": "%"}, {"measurement": "GMS % inhibition (second GMS column)", "setting": "[2]; 2 × 5 mg/kg oral", "result": 99.2, "unit": "%"}, {"measurement": "incidence % inhibition", "setting": "[2]; 2 × 5 mg/kg oral", "result": 75.0, "unit": "%"}, {"measurement": "GMS Value (first GMS column)", "setting": "[2]; 2 × 5 mg/kg oral", "result": "0.1 ± 0.3"}, {"measurement": "GMS Value (second GMS column)", "setting": "[2]; 2 × 5 mg/kg oral", "result": "0.005 ± 0.02"}, {"measurement": "Mean duration", "setting": "[2]; 2 × 10 mg/kg oral", "result": "3.3 ± 7.0", "unit": "days"}, {"measurement": "incidence Value", "setting": "[2]; [5]", "result": "2/10"}, {"measurement": "GMS % inhibition (first GMS column)", "setting": "[2]; 2 × 10 mg/kg oral", "result": 60.0, "unit": "%"}, {"measurement": "GMS % inhibition (second GMS column)", "setting": "[2]; 2 × 10 mg/kg oral", "result": 50.0, "unit": "%"}, {"measurement": "incidence % inhibition", "setting": "[2]; 2 × 10 mg/kg oral", "result": 50.0, "unit": "%"}, {"measurement": "GMS Value (first GMS column)", "setting": "[2]; 2 × 10 mg/kg oral", "result": "0.4 ± 1.0"}, {"measurement": "GMS Value (second GMS column)", "setting": "[2]; 2 × 10 mg/kg oral", "result": "0.3 ± 0.8"}]}
{"smiles": "CC1(C)CC(O)CC(C)(C)N1[O]", "note": "[Tempol, 4-hydroxy-2,2,6,6-tetramethylpiperidyne-1-oxyl, reference compound]", "values": [{"measurement": "% neuroprotection", "setting": "[1]; Dose 1000 μM (positive control)", "result": 100, "unit": "%"}]}
